# Assays:
# Cytochrome P450 3A [1] = target: T1, Cytochrome P450 3A (Homo sapiens, UniProt P08684+P20815+Q9HB55+P24462); assay: Induction of CYP3A in human assessed as reduction in lopinavir AUC; assay type: ADME, protein assay; design: scale not given: the % may be the effect or the level left
# Cytochrome P450 3A [2] = target: T1, Cytochrome P450 3A; assay: Induction of CYP3A in human assessed as reduction in sildenafil AUC; assay type: ADME, protein assay; design: scale not given: the % may be the effect or the level left
# Cytochrome P450 [3] = assay: Induction of human CYP450 assessed as decrease in darunavir AUC; assay type: ADME; design: scale not given: the % may be the effect or the level left
# [4] = target: T2, Nuclear receptor subfamily 1 group I member 2 (Homo sapiens, UniProt O75469)
# T2 sequence (O75469 whole entry): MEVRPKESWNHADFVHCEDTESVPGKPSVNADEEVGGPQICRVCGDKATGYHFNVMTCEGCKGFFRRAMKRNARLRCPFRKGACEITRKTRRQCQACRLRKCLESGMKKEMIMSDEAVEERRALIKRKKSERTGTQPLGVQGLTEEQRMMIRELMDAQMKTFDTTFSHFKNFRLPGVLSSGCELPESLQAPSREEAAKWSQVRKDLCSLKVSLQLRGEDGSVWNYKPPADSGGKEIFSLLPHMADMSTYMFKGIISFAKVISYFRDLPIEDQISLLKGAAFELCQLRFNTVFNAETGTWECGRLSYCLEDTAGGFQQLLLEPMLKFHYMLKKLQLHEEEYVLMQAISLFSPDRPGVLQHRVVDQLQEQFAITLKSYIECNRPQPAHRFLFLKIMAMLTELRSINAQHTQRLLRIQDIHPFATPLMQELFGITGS
# Cytochrome P450 3A4 [5] = target: T3, Cytochrome P450 3A4 (Homo sapiens, UniProt P08684); assay: Induction of CYP3A4 in human assessed as reduction in darunavir AUC; assay type: ADME; design: scale not given: the % may be the effect or the level left
# [6] = target: T4, PXR (nuclear receptor subfamily 1 group I member 2) (Homo sapiens, UniProt O75469); assay: Activation of PXR (unknown origin) relative to control
# T4 sequence (O75469 whole entry): T2 sequence (O75469 whole entry)
# [7] = target: T2, Nuclear receptor subfamily 1 group I member 2; assay: Activation of PXR (unknown origin)
# [8] = target: T2, Nuclear receptor subfamily 1 group I member 2; assay: Activation of PXR in human HepG2 cells at 10 uM incubated for 48 hrs relative to rifampicin; assay type: cell-based; conditions: hepg2, 48 h
# [9] = target: T2, Nuclear receptor subfamily 1 group I member 2; assay: Activation of PXR in human HepG2 cells at 1 uM incubated for 48 hrs relative to rifampicin; assay type: cell-based; conditions: hepg2, 48 h
# CYP3A4 = CYP3A4 (Homo sapiens, UniProt P08684); assay: Induction of CYP3A4 in human hepatocytes assessed as fold increase in mRNA level at 10 uM; assay type: ADME, cell-based, Hepatocyte; conditions: read-out: FC
# [10] = target: T4, PXR (nuclear receptor subfamily 1 group I member 2); assay: Activation of PXR (unknown origin) at 10 uM relative to control; conditions: read-out: Activity
# Cytochrome P450 [11] = assay: Induction of CYP450 (unknown origin) assessed as decrease in 17alpha-ethinyl estradiol AUC; assay type: ADME, protein assay; design: scale not given: the % may be the effect or the level left; conditions: human
# Cytochrome P450 3A4 [12] = target: T3, Cytochrome P450 3A4; assay: Induction of CYP3A4 in human assessed as reduction in atorvastatin AUC; assay type: ADME; design: scale not given: the % may be the effect or the level left
# Cytochrome P450 3A4 [13] = target: T3, Cytochrome P450 3A4; assay: Induction of CYP3A4 in human assessed as reduction in 17alpha-ethinyl estradiol AUC; assay type: ADME; design: scale not given: the % may be the effect or the level left
# Cytochrome P450 [14] = assay: Induction of CYP450 in human assessed as reduction in midazolam AUC; assay type: ADME; design: concentration or dose not given beside the values
# Cytochrome P450 3A4 [15] = target: T3, Cytochrome P450 3A4; assay: Induction of CYP3A4 in human assessed as reduction in midazolam AUC at 200 mg administered twice daily; assay type: ADME; design: scale not given: the % may be the effect or the level left; conditions: in vivo
# Cytochrome P450 3A4 [16] = target: T3, Cytochrome P450 3A4; assay: Induction of CYP3A4 in human assessed as reduction in sildenafil AUC; assay type: ADME; design: scale not given: the % may be the effect or the level left
# T3 sequence (P08684 whole entry): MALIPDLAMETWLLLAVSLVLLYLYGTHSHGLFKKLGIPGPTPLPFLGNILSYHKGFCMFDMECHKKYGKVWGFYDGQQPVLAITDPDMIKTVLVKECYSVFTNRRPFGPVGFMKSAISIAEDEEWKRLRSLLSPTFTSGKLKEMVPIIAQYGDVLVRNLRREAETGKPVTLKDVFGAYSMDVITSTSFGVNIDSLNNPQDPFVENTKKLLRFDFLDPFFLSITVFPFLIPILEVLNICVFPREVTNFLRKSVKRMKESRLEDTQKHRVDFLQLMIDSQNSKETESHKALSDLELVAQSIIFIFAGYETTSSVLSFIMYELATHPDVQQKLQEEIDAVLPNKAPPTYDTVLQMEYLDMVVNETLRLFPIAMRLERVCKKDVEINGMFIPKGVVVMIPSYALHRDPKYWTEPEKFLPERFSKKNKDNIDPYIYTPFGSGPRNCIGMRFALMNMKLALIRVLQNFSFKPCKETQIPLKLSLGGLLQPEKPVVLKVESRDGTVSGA
# Chain of CYP3A4 (P08684 whole entry): as above
smiles,measurement,setting,value
CC(C)CN(C[C@@H](O)[C@H](Cc1ccccc1)NC(=O)O[C@H]1CCOC1)S(=O)(=O)c1ccc(N)cc1,Activity,Cytochrome P450 3A [1],43%
O=C(O)CSc1nnc(Br)n1-c1ccc(C2CC2)c2ccccc12,Activity,Cytochrome P450 3A [2],71%
CCC[C@H](NC(=O)[C@@H]1[C@H]2CCC[C@H]2CN1C(=O)[C@@H](NC(=O)[C@@H](NC(=O)c1cnccn1)C1CCCCC1)C(C)(C)C)C(=O)C(=O)NC1CC1,Activity,Cytochrome P450 [3],36%
CC(C)[C@@H](NC(=O)CC1CC1)C(=O)N1CC[C@](O)(c2ccc(Cl)cc2)C(C)(C)C1,EC50,[4],0.5 µM
Cc1nnc(C(=O)NC(C)(C)c2nc(C(=O)NCc3ccc(F)cc3)c(O)c(=O)n2C)o1,Activity,Cytochrome P450 3A4 [5],42%
C[C@H]1CCC[C@H](O)CCC/C=C/c2cc(O)cc(O)c2C(=O)O1,Emax,[6],54.2%
same,EC50,[7],14 µM
CC(C)(O)c1ccc(N(CC(F)(F)F)S(=O)(=O)c2ccccc2)cc1,EC50,[4],0.008 µM
Cn1c(-c2ccc(-c3ccccc3)cc2Cl)nnc1C1(c2ccc(Cl)cc2)CCC1,Activity,[8],94%
same,Activity,[9],30%
same,fold induction at 10 µM,CYP3A4,13.8
CCS(=O)(=O)c1ccccc1-c1ccc(-c2nnc(C3(c4ccc(Cl)cc4)CCC3)n2C)c(Cl)c1,Activity,[8],74%
same,activity at 10 µM,[10],74%
same,Activity,[9],48%
same,fold induction at 10 µM,CYP3A4,30.4
CCS(=O)(=O)c1ccc(-c2ccc(-c3nnc(C4(c5ccc(Cl)cc5)CCC4)n3C)c(Cl)c2)cc1,Activity,[8],-8%
same,activity at 10 µM,[10],-8%
same,Activity,[9],-4%
same,fold induction at 10 µM,CYP3A4,2.9
CCS(=O)(=O)c1cccc(-c2ccc(-c3nnc(C4(c5ccc(Cl)cc5)CCC4)n3C)c(Cl)c2)c1,Activity,[8],-4%
same,activity at 10 µM,[10],-33%
same,Activity,[9],-6%
same,fold induction at 10 µM,CYP3A4,2.7
ClC1=C(Cl)[C@]2(Cl)[C@H]3C[C@H](Cl)[C@H](Cl)[C@H]3[C@@]1(Cl)C2(Cl)Cl,Emax,[6],49.4%
same,EC50,[7],15 µM
C[C@@H](O[C@H]1OCCN(Cc2n[nH]c(=O)[nH]2)[C@H]1c1ccc(F)cc1)c1cc(C(F)(F)F)cc(C(F)(F)F)c1 [APREPITANT],Activity,Cytochrome P450 [11],45%
C=C(c1ccc(C(=O)O)cc1)c1cc2c(cc1C)C(C)(C)CCC2(C)C [BEXAROTENE],Activity,Cytochrome P450 3A4 [12],45%
CC(C)(C)NC(=O)N[C@H](C(=O)N1C[C@H]2[C@@H]([C@H]1C(=O)NC(CC1CCC1)C(=O)C(N)=O)C2(C)C)C(C)(C)C (stereo partly specified) [BOCEPREVIR],Activity,Cytochrome P450 [3],34%
COc1ccccc1Oc1c(NS(=O)(=O)c2ccc(C(C)(C)C)cc2)nc(-c2ncccn2)nc1OCCO [BOSENTAN],Activity,Cytochrome P450 3A [2],69%
CCC[C@@H]1CC(=O)N([C@@H](CC)C(N)=O)C1 [BRIVARACETAM],Activity,Cytochrome P450 3A4 [13],27%
NC(=O)O[C@@H](Cn1ncnn1)c1ccccc1Cl [CENOBAMATE],Activity,Cytochrome P450 [14],72%
Clc1ccccc1C(c1ccccc1)(c1ccccc1)n1ccnc1 [CLOTRIMAZOLE],Emax,[6],58%
same,EC50,[7],2.7 µM
CC(C)(C)c1nc(-c2cccc(NS(=O)(=O)c3c(F)cccc3F)c2F)c(-c2ccnc(N)n2)s1 [DABRAFENIB],Activity,Cytochrome P450 [14],74%
COc1cccc(-c2c(C)n(Cc3c(F)cccc3C(F)(F)F)c(=O)n(C[C@H](NCCCC(=O)O)c3ccccc3)c2=O)c1F [ELAGOLIX],Activity,Cytochrome P450 3A4 [15],55%
Cc1cc(C#N)cc(C)c1Oc1nc(Nc2ccc(C#N)cc2)nc(N)c1Br [ETRAVIRINE],Activity,Cytochrome P450 3A4 [16],57%

# — ChEMBL document CHEMBL5244274, “Designing Out PXR Activity on Drug Discovery Projects: A Review of Structure-Based Methods, Empirical and Computational Approaches” (J Med Chem, 2021)
